Assay results taken from ChEMBL document CHEMBL1138168, “Imidazo[1,2-a]pyrimidines as functionally selective GABA(A) ligands” (Bioorg Med Chem Lett, 2006).
The source made the active and inactive calls. The calls are words filed in the database; no cut-off is given here.

Target: T1, GABA-A receptor; alpha-3/beta-3/gamma-2 (Homo sapiens) (UniProt P18507+P28472+P34903)
Assay: Efficacy against recombinant human GABA-Aalpha3 receptor plus beta-3-gamma-2 expressed in L(tk-) cells by whole cell patch clamp method
Assay type: functional, cell-based
Details: not given

Compound	Efficacy [%]
FC(F)(F)c1ccn2c(-c3ccnc(Cl)n3)cnc2n1	-24.9
COc1cccc(-c2cnc3nc(C(F)(F)F)ccn23)n1	-51.6
N#Cc1cc(F)ccc1-c1cc(-c2cnc3nc(C(F)(F)F)ccn23)ccn1	22

Next, values leading:

Efficacy [%]	Compound
-22	N#Cc1ccccc1-c1cccc(-c2cnc3nc(C(F)(F)F)ccn23)n1
45	N#Cc1ccccc1-c1cc(-c2cnc3nc(C(F)(F)F)ccn23)ccn1
59	N#Cc1ccccc1-c1cccc(-c2cnc3nc(C(F)(F)F)ccn23)c1

Target: T1, GABA-A receptor; alpha-3/beta-3/gamma-2 (Homo sapiens)
Assay: Efficacy against recombinant human GABA-Aalpha3 receptor plus beta-3-gamma-2 as measured by modulation of chloride ion flux
Assay type: functional
Details: not given

Compound	Efficacy [%]
FC(F)(F)c1ccn2c(-c3ccccn3)cnc2n1	-7
FC(F)(F)c1ccn2c(-c3ccnc(Cl)n3)cnc2n1	-19
COc1cccc(-c2cnc3nc(C(F)(F)F)ccn23)n1	-9
N#Cc1cc(F)ccc1-c1cc(-c2cnc3nc(C(F)(F)F)ccn23)ccn1	21

Further lines, results first:

Efficacy [%]	Compound
23	Fc1ccccc1-c1cc(-c2cnc3nc(C(F)(F)F)ccn23)ccn1
-39	N#Cc1ccccc1-c1cncc(-c2cnc3nc(C(F)(F)F)ccn23)c1
10	N#Cc1ccccc1-c1cccc(-c2cnc3nc(C(F)(F)F)ccn23)n1
-15	N#Cc1ccccc1-c1nccc(-c2cnc3nc(C(F)(F)F)ccn23)n1
43	N#Cc1ccccc1-c1cc(-c2cnc3nc(C(F)(F)F)ccn23)ccn1
53	N#Cc1ccccc1-c1cccc(-c2cnc3nc(C(F)(F)F)ccn23)c1

Target: T2, GABA-A receptor; alpha-3/beta-3/gamma-2 (Homo sapiens, UniProt P18507+P28472+P34903)
T2 sequence (P18507 whole entry): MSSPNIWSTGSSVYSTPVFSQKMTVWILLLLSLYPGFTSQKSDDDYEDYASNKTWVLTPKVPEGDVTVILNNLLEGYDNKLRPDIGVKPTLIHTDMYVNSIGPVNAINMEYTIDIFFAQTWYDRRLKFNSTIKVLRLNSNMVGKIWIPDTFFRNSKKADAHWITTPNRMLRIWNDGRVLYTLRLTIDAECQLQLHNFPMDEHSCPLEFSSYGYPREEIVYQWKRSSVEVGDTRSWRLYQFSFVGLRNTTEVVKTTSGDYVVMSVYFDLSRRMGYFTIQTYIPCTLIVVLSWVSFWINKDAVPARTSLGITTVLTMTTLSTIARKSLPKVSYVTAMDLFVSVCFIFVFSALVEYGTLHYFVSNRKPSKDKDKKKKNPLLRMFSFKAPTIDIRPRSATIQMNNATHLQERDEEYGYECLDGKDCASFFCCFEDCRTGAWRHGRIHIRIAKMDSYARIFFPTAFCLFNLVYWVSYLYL
T2 sequence (P28472 whole entry): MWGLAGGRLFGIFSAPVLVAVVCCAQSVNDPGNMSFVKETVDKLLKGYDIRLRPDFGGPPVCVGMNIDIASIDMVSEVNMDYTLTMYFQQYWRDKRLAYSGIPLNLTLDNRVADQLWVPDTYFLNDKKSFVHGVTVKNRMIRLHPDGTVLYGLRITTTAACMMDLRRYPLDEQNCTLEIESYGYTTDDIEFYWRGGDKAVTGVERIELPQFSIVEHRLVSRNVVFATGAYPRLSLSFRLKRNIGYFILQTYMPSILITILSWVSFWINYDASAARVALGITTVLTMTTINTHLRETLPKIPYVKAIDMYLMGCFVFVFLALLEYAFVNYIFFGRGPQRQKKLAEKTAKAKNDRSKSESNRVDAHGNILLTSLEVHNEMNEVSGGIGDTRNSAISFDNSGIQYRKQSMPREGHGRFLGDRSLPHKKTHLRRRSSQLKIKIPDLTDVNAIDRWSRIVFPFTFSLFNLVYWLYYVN
T2 sequence (P34903 whole entry): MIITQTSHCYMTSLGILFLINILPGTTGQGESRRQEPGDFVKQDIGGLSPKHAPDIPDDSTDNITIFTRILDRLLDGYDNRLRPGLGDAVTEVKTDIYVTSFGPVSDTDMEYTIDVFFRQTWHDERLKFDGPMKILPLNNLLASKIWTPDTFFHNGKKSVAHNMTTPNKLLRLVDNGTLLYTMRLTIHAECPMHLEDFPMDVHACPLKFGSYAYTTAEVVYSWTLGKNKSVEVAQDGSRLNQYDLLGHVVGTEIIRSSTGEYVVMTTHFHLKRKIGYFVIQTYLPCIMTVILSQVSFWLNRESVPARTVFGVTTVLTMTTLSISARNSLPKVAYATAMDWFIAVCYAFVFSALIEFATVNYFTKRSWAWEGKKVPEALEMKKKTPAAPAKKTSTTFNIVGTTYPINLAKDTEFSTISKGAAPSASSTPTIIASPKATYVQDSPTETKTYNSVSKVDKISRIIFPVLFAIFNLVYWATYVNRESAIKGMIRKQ
Assay: Displacement of [3H]Ro 15-1788 from recombinant human GABA-Aalpha3 receptor plus beta-3-gamma-2 expressed in L(tk-) cells
Assay type: cell-based
Details: not given

Compound	Ki [nM]
FC(F)(F)c1ccn2c(-c3ccccn3)cnc2n1	11
FC(F)(F)c1ccn2c(-c3ccnc(Cl)n3)cnc2n1	2
COc1cccc(-c2cnc3nc(C(F)(F)F)ccn23)n1	1.7
N#Cc1cc(F)ccc1-c1cc(-c2cnc3nc(C(F)(F)F)ccn23)ccn1	2.2

Further lines, results first:

Ki [nM]	Compound
14	Fc1ccccc1-c1cc(-c2cnc3nc(C(F)(F)F)ccn23)ccn1
> 33	N#Cc1ccccc1-c1cncc(-c2cnc3nc(C(F)(F)F)ccn23)c1
0.46	N#Cc1ccccc1-c1cccc(-c2cnc3nc(C(F)(F)F)ccn23)n1
1.4	N#Cc1ccccc1-c1nccc(-c2cnc3nc(C(F)(F)F)ccn23)n1
2.9	N#Cc1ccccc1-c1cc(-c2cnc3nc(C(F)(F)F)ccn23)ccn1

Tested on: not listed separately
Assay: Metabolism in dog liver microsomes at 1 uM
Details: not given

metabolized at 1 µM [%]	Compound
15	N#Cc1ccccc1-c1cccc(-c2cnc3nc(C(F)(F)F)ccn23)n1
56	N#Cc1ccccc1-c1nccc(-c2cnc3nc(C(F)(F)F)ccn23)n1
4	N#Cc1ccccc1-c1cc(-c2cnc3nc(C(F)(F)F)ccn23)ccn1
100	N#Cc1ccccc1-c1cccc(-c2cnc3nc(C(F)(F)F)ccn23)c1

Target: T3, GABA-A receptor; alpha-1/beta-3/gamma-2 (Homo sapiens, UniProt P14867+P18507+P28472)
T3 sequence (P14867 whole entry): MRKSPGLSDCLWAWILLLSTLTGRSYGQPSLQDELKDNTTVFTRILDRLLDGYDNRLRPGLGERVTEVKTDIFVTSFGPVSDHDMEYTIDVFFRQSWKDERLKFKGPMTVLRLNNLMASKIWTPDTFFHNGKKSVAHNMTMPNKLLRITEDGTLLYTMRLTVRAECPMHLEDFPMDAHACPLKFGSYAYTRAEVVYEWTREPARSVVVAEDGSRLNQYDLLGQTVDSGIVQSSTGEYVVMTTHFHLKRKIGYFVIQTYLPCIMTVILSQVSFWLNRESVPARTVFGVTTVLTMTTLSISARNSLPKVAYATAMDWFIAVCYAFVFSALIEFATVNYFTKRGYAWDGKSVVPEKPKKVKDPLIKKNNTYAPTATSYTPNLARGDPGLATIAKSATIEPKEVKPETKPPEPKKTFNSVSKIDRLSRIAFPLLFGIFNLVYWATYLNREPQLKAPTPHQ
T3 sequence (P18507 whole entry): T2 sequence (P18507 whole entry)
T3 sequence (P28472 whole entry): T2 sequence (P28472 whole entry)
Assay: Displacement of [3H]Ro 15-1788 from recombinant human GABA-Aalpha1 receptor plus beta-3-gamma-2 expressed in L(tk-) cells
Assay type: cell-based
Details: not given

Compound	Ki [nM]
FC(F)(F)c1ccn2c(-c3ccccn3)cnc2n1	9.1
FC(F)(F)c1ccn2c(-c3ccnc(Cl)n3)cnc2n1	0.93
COc1cccc(-c2cnc3nc(C(F)(F)F)ccn23)n1	1.2
N#Cc1cc(F)ccc1-c1cc(-c2cnc3nc(C(F)(F)F)ccn23)ccn1	0.99

Results, then the molecule that gave them:

Ki [nM]	Compound
8.3	Fc1ccccc1-c1cc(-c2cnc3nc(C(F)(F)F)ccn23)ccn1
18	N#Cc1ccccc1-c1cncc(-c2cnc3nc(C(F)(F)F)ccn23)c1
0.36	N#Cc1ccccc1-c1cccc(-c2cnc3nc(C(F)(F)F)ccn23)n1
1	N#Cc1ccccc1-c1nccc(-c2cnc3nc(C(F)(F)F)ccn23)n1
2.5	N#Cc1ccccc1-c1cc(-c2cnc3nc(C(F)(F)F)ccn23)ccn1

Organism: Canis familiaris
Assay: Stability in dog liver microsomes
Assay type: ADME, Canis lupus familiaris, Microsome
Details: not given

Stability [%]	Compound
< 5	N#Cc1cc(F)ccc1-c1cc(-c2cnc3nc(C(F)(F)F)ccn23)ccn1

Tested on: Mus musculus
Assay: Proconvulsant activity in Swiss Webster mice at 10 mg/kg, ip by pentylenetetrazole assay
Assay type: ADME, organism-based
Parameters: dose 10 mg/kg, route intraperitoneal
Details: in vivo

Compound	Activity
FC(F)(F)c1ccn2c(-c3ccnc(Cl)n3)cnc2n1	Inverse agonist

Organism: Homo sapiens
Assay: Stability in human liver microsomes
Assay type: ADME, Microsome
Details: not given

Stability [%]	Compound
< 5	N#Cc1cc(F)ccc1-c1cc(-c2cnc3nc(C(F)(F)F)ccn23)ccn1

Target: GABA-A receptor; alpha-5/beta-3/gamma-2 (Homo sapiens) (UniProt P18507+P28472+P31644)
Assay: Displacement of [3H]Ro 15-1788 from recombinant human GABA-Aalpha5 receptor plus beta3gamma2 expressed in L(tk-) cells
Assay type: cell-based
Details: not given

Activity	Compound
Active	N#Cc1ccccc1-c1cccc(-c2cnc3nc(C(F)(F)F)ccn23)n1
Active	N#Cc1ccccc1-c1nccc(-c2cnc3nc(C(F)(F)F)ccn23)n1
Active	N#Cc1ccccc1-c1cc(-c2cnc3nc(C(F)(F)F)ccn23)ccn1

Tested on: not listed separately
Assay: Rat brain to plasma ratio at 1 mg/kg, po
Assay type: ADME, organism-based
Parameters: dose 1 mg/kg, route oral
Details: brain and plasma

Kp	Compound
0.73	N#Cc1cc(F)ccc1-c1cc(-c2cnc3nc(C(F)(F)F)ccn23)ccn1

Tested on: Plasma
Assay: Receptor occupancy in plasma of rat at 1 mg/kg, po
Assay type: functional
Details: not given

Compound	Activity [µM]
N#Cc1cc(F)ccc1-c1cc(-c2cnc3nc(C(F)(F)F)ccn23)ccn1	0.15

Target: GABA-A receptor; anion channel (Rattus norvegicus) (UniProt O09028+P15431+P18506+P18508+P19969+P20236+P23574+P23576+P28471+P28473+P30191+P62813+P63079+P63138+Q91ZM7+Q9ES14)
Assay: Receptor occupancy in vivo by displacement of [3H]Ro 15-1788 binding from GABA-A receptor in rat at 1 mg/kg, po
Assay type: functional, organism-based
Parameters: dose 1 mg/kg
Details: not given

Activity [%]	Compound
50	N#Cc1cc(F)ccc1-c1cc(-c2cnc3nc(C(F)(F)F)ccn23)ccn1

Target: T4, GABA-A receptor; alpha-1/beta-3/gamma-2 (Homo sapiens) (UniProt P14867+P18507+P28472)
Assay: Efficacy against recombinant human GABA-Aalpha1 receptor plus beta-3-gamma-2 expressed in L(tk-) cells by whole cell patch clamp method
Assay type: functional, cell-based
Details: not given

Compound	Efficacy [%]
COc1cccc(-c2cnc3nc(C(F)(F)F)ccn23)n1	-41.4
N#Cc1cc(F)ccc1-c1cc(-c2cnc3nc(C(F)(F)F)ccn23)ccn1	0

Continued, values first:

Efficacy [%]	Compound
15	N#Cc1ccccc1-c1cc(-c2cnc3nc(C(F)(F)F)ccn23)ccn1
19	N#Cc1ccccc1-c1cccc(-c2cnc3nc(C(F)(F)F)ccn23)c1

Target: T4, GABA-A receptor; alpha-1/beta-3/gamma-2 (Homo sapiens)
Assay: Efficacy against recombinant human GABA-Aalpha1 receptor plus beta-3-gamma-2 as measured by modulation of chloride ion flux
Assay type: functional
Details: not given

Compound	Efficacy [%]
FC(F)(F)c1ccn2c(-c3ccccn3)cnc2n1	-40
FC(F)(F)c1ccn2c(-c3ccnc(Cl)n3)cnc2n1	-22
COc1cccc(-c2cnc3nc(C(F)(F)F)ccn23)n1	-22
N#Cc1cc(F)ccc1-c1cc(-c2cnc3nc(C(F)(F)F)ccn23)ccn1	9

The remaining lines, values ahead:

Efficacy [%]	Compound
6	Fc1ccccc1-c1cc(-c2cnc3nc(C(F)(F)F)ccn23)ccn1
-55	N#Cc1ccccc1-c1cncc(-c2cnc3nc(C(F)(F)F)ccn23)c1
-8	N#Cc1ccccc1-c1cccc(-c2cnc3nc(C(F)(F)F)ccn23)n1
-29	N#Cc1ccccc1-c1nccc(-c2cnc3nc(C(F)(F)F)ccn23)n1
4	N#Cc1ccccc1-c1cc(-c2cnc3nc(C(F)(F)F)ccn23)ccn1
10	N#Cc1ccccc1-c1cccc(-c2cnc3nc(C(F)(F)F)ccn23)c1
